# According to patent publication US6982142B2, “Methods for screening therapeutically effective agents” (John Wayne Cancer Institute, priority 1997, dated 2006):
# Like-named read-outs stand apart in the source and are kept apart here.
# How the values were obtained:
# MCF-7-wt cells = test: Cytotoxicity assay (Promega) in chemosensitive wild-type breast cancer cells; assay type: cell-based, human; conditions: C6-ceramide at increasing concentrations, 72 hr
# MCF-7/GCS cells = assay type: cell-based, human; conditions: MCF-7/GCS vs MCF-7
# Experimental: (§1) Cytotoxicity Assay. The assay was performed as previously described (Lavie, 1997). […] Cultures were incubated at 37° C. for 24 hr before addition of drug. Drugs were added in FBS-free medium (0.1 ml), and cells were cultured at 37° C. for the indicated periods. Drug cytotoxicity was determined using the Promega 96 Aqueous cell proliferation assay kit. Absorbance at 490 nm was recorded using an ELISA reader (Molecular Devices, San Diego, Calif.).
# (§2) Adriamycin was used to assess the influence of GCS transfection on cellular response to anthracyclines. After pretreatment with doxycycline for two days, MCF-7/GCS cells were incubated with increasing concentrations of adriamycin for four days. […] It was observed that MCF-7/GCS cells were resistant to ceramide toxicity as well. […] However, the EC50 in the TC group was nearly identical with that of MCF-7 cells, there being no statistical difference between the two groups (FIG. 14C).
# MCF-7 cells = test: cells; assay type: cell-based; conditions: Homo sapiens, MCF7, 96 h, read-out: EC50 (cytotoxicity)
# Experimental: as §1, §2
# MCF-7-AdrR cells [1] = test: cells; conditions: Homo sapiens, read-out: cell viability
# MCF-7-AdrR cells [2] = test: Cell radiolabeling and TLC/LSC analysis of ceramide, glucosylceramide and sphingomyelin in MDR breast cancer cells; assay type: cell-based, human; conditions: adriamycin 2.5, PSC 833 5.0 μM, tamoxifen 5.0 μM alone or combined, 24 h, [3H]palmitic acid
# Experimental: Cells. Experiments were conducted using the human MDR breast cancer cell line, MCF-7 AdrR (adriamycin resistant) provided by Drs. Kenneth H. Cowan and Merrill E. Goldsmith, National Cancer Institute. Cells were grown in RPMI-1640 medium containing 10% FBS (fetal bovine serum) and antibiotics as previously described (Lavie, 1997) and cultures were maintained in a humidified 6.5% CO2 atmosphere incubator. Trypsin (0.05%) and EDTA (0.5 mM) were used for subculture. Plastic tissue cultureware, was from Costar (96-well plates) and Corning (6-well plates, 6-cm dishes, T-75 flasks). Limited experiments were conducted using the human MDR epidermoid carcinoma cell line, KBV-1, provided by Dr. Michael M. Gottesman, National Cancer Institute. Cells were maintained as described (Lavie, 1996). Vinblastine was eliminated from the culture medium during the experiments.
# Cell Radiolabeling and Lipid/Glycolipid Analysis. To follow lipid metabolism, cells were grown in the presence of tritiated ceramide precursors, L-[^3H]serine (20 Ci/mmol) (American Radiolabeled Chemicals, Inc., St. Louis), and [9, 10-^3H]palmitic acid (50 Ci/mmol) (DuPont NEN). Labeling media were prepared by adding microliter amounts of tritiated compounds (supplied in ethanol or sterile water) to medium containing only 5% FBS. After radiolabeling, 0.1 ml aliquots of medium were removed and analyzed by LSC (Lavie, 1997), in order to determine cellular uptake of the tritiated compounds. Cell monolayers were then rinsed twice with cold phosphate-buffered saline. Ice cold methanol containing 2% acetic acid was added, and cells were scraped free of the substratum (plastic scraper) for lipid extraction using chloroform and water in 1-dram glass vials as described (Lavie, 1997; Lavie, 1996; Bligh and Dyer, 1959). After centrifugation, the resulting organic lower phase of the biphasic extraction was withdrawn, transferred to a glass vial, and evaporated to dryness under a stream of nitrogen.
# Radioactivity in glucosylceramide was analyzed by TLC resolution of total lipids (Silica Gel G) using a solvent system containing chloroform/methanol/ammonium hydroxide (80:20:2, v/v/v). Migration of glucosylceramide on TLC was compared with that of commercial standard (glucocerebrosides, Gaucher's spleen, Matreya, Inc., Pleasant Gap, Pa.), and lipid spots, after iodine vapor visualization, were scraped for tritium quantitation by LSC (Lavie, 1997; Lavie, 1996). […] Ceramide and sphingomyelin commercial standards (brain-derived) were from Avanti Polar Lipids, Alabaster, Ala. After iodine visualization of lipids, areas of the chromatogram corresponding to ceramide and sphingomyelin were scraped into minivials containing 0.5 ml water followed by 4.5 ml EcoLume (ICN, Costa Mesa, Calif.), and samples were analyzed for tritium by liquid scintillation spectrometry. Alternative analysis of ceramide consisted of subjecting an aliquot of the total cell lipid extract to mild alkaline hydrolysis (0.1 N KOH in methanol, 1 h at 37° C.) followed by re-extraction (Lavie, 1997). […] The same can also be done without tritium by simply applying 100-200 μg total cell lipid to TLC plates and developing them in the appropriate solvent, then spraying them with 30% H2SO4, charring the plate in an oven at 180° C. for 20 min, and measuring lipid mass by densitometry.
# GCS mRNA = test: Northern blot of GCS mRNA expression in MCF-7/GCS cells; assay type: cell-based, human
# Experimental: (A) Northern Blot showing regulated expression of GCS mRNA in MCF-7 and MCF-7/GCS cells incubated with the indicated concentrations of doxycycline (dox, μg/ml). Total RNA per lane was 15 micrograms. Ethidium bromide-stained RNA (28 S) was used as a control for even loading. Densities of GCS/28 S RNA (×100) in MCF-7/GCS cells were 16, 18, 97, 256 at 0, 0.1, 1.0 and 3.0 μg/ml doxycycline, respectively. (B) Dose-response of GCS activity to doxycycline. Cells were incubated for 96 hr in medium containing the indicated concentrations of doxycycline. GCS activity was analyzed by radioenzymatic assay. * p<0.01, **p<0.001 compared with MCF-7 cells. (C) Doxycycline-induced resistance to ceramide. Cells were pretreated with the indicated concentrations of doxycycline for 48 hr, seeded in 96-well plates, and treated the following day with 5 μM C6ceramide in RPMI-1640 medium containing 5% FBS. Cell viability was determined after 96 hr. Data represent the mean ±SD of six replicates from two independent experiments. Control cells were cultured in medium without C6-ceramide. * p<0.001 compared to MCF-7 cells; **p<0.001, compared to MCF-7 cells exposed to 1.0 μg/ml doxycycline.
# RNA Analysis. RNA was extracted from cells using the single-step method described by Chomczynski and Sacchi (Chomczynski, 1987). Equal amounts of total RNA (15 μg) were denatured in 59% formamide/2.2 M formaldehyde, size separated by electrophoresis on 1% agarose-formaldehyde, and then blotted onto nitrocellulose-plus (Sambrook, 1989). GCS cDNA was prepared from pCG-2 plasmid, digested with EcoR I, and Hind III (Stratagene, La Jolla, Calif.). […]
# If ceramide resistance is induced by GCS expression in MCF-7/GCS cells, the resistance response should be tightly correlated with the level of the inducer, doxycycline. It was determined that increasing doxycycline concentrations correlated closely with increased expression of GCS, which in turn correlated well with increased resistance of the cells to C6ceramide. […]
# [3] = system: glucosylceramide synthase; test: Glucosylceramide synthase radioenzymatic assay on microsomes of Tet-on GCS-transfected clones; assay type: cell-based, human
# Experimental: Glucosylceramide Synthase Assay. To determine the expression of GCS in the hygromycin-resistant clones, a modified radioenzymatic assay was utilized (Lavie, 1997; Shukla, 1990). After incubation in the absence or presence of doxycycline (3 μg/ml, 48 hr), cells were homogenized by sonication in lysis buffer (50 mM Tris-HCl, pH 7.4, 1.0 μg/ml leupeptin, 10 μg/ml aprotinin, 25 μM PMSF). Microsomes were isolated by centrifugation (129,000×g, 60 min). The enzyme assay, containing 50 μg microsomal protein, in a final volume of 0.2 ml, was performed in a shaking water bath at 37° C. for 60 min. The reaction contained liposomal substrate composed of C6-ceramide (1.0 mM), phosphatidylcholine (3.6 mM, MW 786.15), and brain sulfatides (0.9 mM, MW 563). The liposomal substrate was prepared by mixing the components, evaporating the solvents under a stream of nitrogen, and sonicating in water over ice for 1-min using a microtip at 50% output (Kontes, Micro Ultrasonic Cell Disrupter). Other reaction components included sodium phosphate buffer (0.1 M) pH 7.8, EDTA (2.0 mM), MgCl2 (10 mM), dithiothreitol (1.0 mM), β-NAD (2.0 mM), and [^3H]UDP-glucose (0.5 mM). Radiolabeled and unlabeled UDP-glucose were diluted to achieve the desired radiospecific activity (4,700 dpm/nmol). To terminate the reaction, tubes were placed on ice and 0.5 ml isopropanol and 0.4 ml Na2SO4 were added. After brief vortex mixing, 3 ml t-butyl methyl ether was added and the tubes were mixed for 30 sec. After centrifugation, 0.5 ml upper phase which contained GC, was withdrawn and mixed with 4.5 ml EcoLume for analysis of radioactivity by liquid scintillation spectroscopy.
# After co-transfection of pTRE-GCS and pTK-Hyg into clone 1 and clone 16 of MCF-7 Tet-on cells, 65 hygromycin-resistant clones were selected. […] Compared with a basal level of 17.2±0.1 pmol GC in MCF-7 wt cells, doxycycline-induced GCS activity in MCF-7/GCS12, […] and MCF-7/GCS14 was to 167.4±17.2, 183.3±12.4, and 90.2±2.76 pmol GC, respectively (FIG. 13A). There were no differences in either basal or doxycycline-induced GCS activity in transfection control cells (TC) or in the basal level of GCS in MCF-7 wt cells (FIG. 13A). In MCF-7/GCS13 and MCF-7/GCS14, the doxycycline-inducible GCS activities were 1.6-fold and 4.1-fold, respectively, above untreated cells. The MCF-7/GCS14 clone was designated MCF-7/GCS, and this clone was used in further experiments.
compound,measurement,setting,value
"CCCCCCCCCCCCC/C=C/[C@@H](O)[C@H](CO)NC(=O)CCCCC [C6-ceramide, N-hexanoylsphingosine]","cell viability, dose-response",MCF-7-wt cells,dose dependent decrease in viability
same,EC50 in MCF-7/GCS cells relative to EC50 in MCF-7 cells,MCF-7/GCS cells,4 fold
same,EC50 in MCF-7/GCS cells relative to EC50 in MCF-7 cells,MCF-7/GCS cells; listed as ceramide,5 fold
same,EC50,MCF-7 cells,3.1 ± 0.5 µM
same,viability at 10 µM,MCF-7-AdrR cells [1]; 72 h,84%
same,viability at 5 µM,MCF-7-AdrR cells [1],86%
"CC/C(=C(\c1ccccc1)c1ccc(OCCN(C)C)cc1)c1ccccc1 [tamoxifen, Tamoxifen]","ceramide level, increase over control",MCF-7-AdrR cells [2],0.3 fold
"C[C@H]1c2cccc(O)c2C(=O)C2=C(O)[C@]3(O)C(=O)C(C(N)=O)=C(O)[C@@H](N(C)C)[C@@H]3[C@@H](O)[C@@H]21.Cl [doxycycline, Doxycycline hydrochloride]",GCS mRNA density (GCS band/28 S RNA×100),GCS mRNA; doxycycline 0.1 μg/ml,18
same,GCS mRNA density (GCS band/28 S RNA×100),GCS mRNA; doxycycline 1.0 μg/ml,97
same,GCS mRNA density (GCS band/28 S RNA×100),GCS mRNA; doxycycline 3.0 μg/ml,256
same,doxycycline-induced GCS activity,"[3]; clone MCF-7/GCS3 (so in the source), doxycycline 3 μg/ml",183.3±12.4 pmol GC
same,doxycycline-induced GCS activity,"[3]; clone MCF-7/GCS12, doxycycline 3 μg/ml",167.4±17.2 pmol GC
same,doxycycline-inducible GCS activity above untreated cells,[3]; clone MCF-7/GCS13,1.6 fold
same,doxycycline-inducible GCS activity above untreated cells,[3]; clone MCF-7/GCS14,4.1 fold
same,doxycycline-induced GCS activity,"[3]; clone MCF-7/GCS14, doxycycline 3 μg/ml",90.2±2.76 pmol GC
